The values that follow come from patent US20150018361A1, “ANTI-TUMOR ACTIVITY OF REDUCED FOLATES LIKE METHYLENE-TETRAHYDROFOLATE” (ISOFOL MEDICAL AB, priority 2012, published 2015).

“Also recorded” adds a separate entry of the source.

For data set [1] the following is noted: in the body; no species or test given; cited from earlier work.
Data set [2] concerns HCT116 colorectal carcinoma xenograft. Kind of data set: Anti-tumoral efficacy in the HCT116 colorectal carcinoma xenograft model (tumor volume). Conditions: intraperitoneal, 45 mg/kg or 1.7 mg/kg qd x 21, both high and low dose. It is filed as in vivo, female NCr nu/nu mice. The method, then: Purpose: To determine the anti-tumoral efficacy of [6R]-methylene-THF in the HCT116 colorectal carcinoma xenograft model. The HCT116 colorectal carcinoma cell line is sensitive to 5-FU and its analog capecitabine.
(§1) Study design: A total of 30 female NCr nu/nu mice (10 per group) at the age of 8-12 weeks were injected with 5×10^6 HCT116 tumor cells in 0% Matrigel sc in flank. When the tumors reached an average size of […] they were administered with intraperitoneal injections of vehicle or [6R]-methylene-THF (Modufolin®), according to the schedule in table 1. Animals were monitored individually. The endpoint of the experiment was when a tumor weight of 1300 mm3 or 65 days was reached, whichever came first. Responders could be followed longer. When the endpoint was reached, the animals were euthanized. Body weight (bw) (g) and tumor volume (mm3) was measured on days 1, 2 (bw only), 3 (bw only), 4, 5 (bw only), 7, 11, 14, 18, 21, 25, 28, 32, 35, 39, 42, 49, 53, 56, 60 and 63.

Data set [3] can be described thus: Body weight development / tolerability in the HCT116 xenograft study. To be noted: intraperitoneal. It is filed as in vivo, female NCr nu/nu mice. The method, then:
as §1
Body weight gives an indication on how severe the side effects of the treatment are, poor development of body weight indicating more adverse side effects.

`Nc1nc2c(c(=O)[nH]1)NC(CNc1ccc(C(=O)N[C@@H](CCC(=O)O)C(=O)O)cc1)CN2` (stereo partly shown) [THF, tetrahydrofolic acid]: in data set [1], the half life result was “approximately 30 min”.

For `Nc1nc2c(c(=O)[nH]1)N1CN(c3ccc(C(=O)N[C@@H](CCC(=O)O)C(=O)O)cc3)C[C@H]1CN2` [[6R]-methylene-THF, [6R]-5,10-methylenetetrahydrofolic acid], the “anti-tumor activity (mean tumor volume over time compared to control)” value in data set [2] was “marked influence on tumor volume; also recorded: intrinsic antitumor activity”. For the same compound, the “effect on animal weight” value is given as “in line with the vehicle group” in data set [3] (high-dose (45 mg/kg, qd x 21)) and “positive effect on animal weight” in data set [3] (low-dose (1.7 mg/kg, qd x 21)). The “body weight development compared to the vehicle group” value in data set [3] (qd x 21, both dose groups overall) was “slightly positive body weight development”. As for `CN1c2c(nc(N)[nH]c2=O)NCC1CNc1ccc(C(=O)N[C@@H](CCC(=O)O)C(=O)O)cc1` (stereo partly shown) [methyl-THF, 5-methyl-tetrahydrofolic acid], the half life result in data set [1] is “approximately 5 hours”.

For `Nc1nc2c(c(=O)[nH]1)N1CN(c3ccc(C(=O)N[C@@H](CCC(=O)O)C(=O)O)cc3)CC1CN2` (stereo partly shown) [methylene-THF, 5,10-methylene-tetrahydrofolic acid], in data set [1], the half life entry is listed as “approximately 20 min”.
